The source made the active and inactive calls. No cut-off for these calls is given here.
What was measured:
[1] = tested on: A549; test: Growth inhibition of human A549 cells incubated for 48 hrs by trypan blue dye exclusion assay; format: functional, cell-based
[2] = tested on: HL-60; test: Growth inhibition of human HL60 cells incubated for 48 hrs by trypan blue dye exclusion assay; format: functional, cell-based
[3] = tested on: K562; test: Growth inhibition of human K562 cells incubated for 48 hrs by trypan blue dye exclusion assay; format: functional, cell-based
[4] = species on record: Homo sapiens; test: Growth inhibition of human CRL11174 cells incubated for 48 hrs by trypan blue dye exclusion assay; format: functional
[5] = tested on: MDA-MB-231; test: Growth inhibition of human MDA-MB-231 cells incubated for 48 hrs by trypan blue dye exclusion assay; format: functional, cell-based
[6] = tested on: U-87MG ATCC; test: Antitumor activity against human U87MG cells implanted in C57Bc16 mouse assessed as inhibition of tumor size at 20 mg/kg, ip measured during 7 to 25 days after tumor inoculation; format: functional, organism-based
[7] = tested on: CT26; test: Antitumor activity against mouse CT26 cells implanted in C57Bc16 mouse assessed as inhibition of tumor size at 20 or 23 mg/kg, ip measured during 7 to 22 days after tumor inoculation; format: functional, organism-based
[8] = target: T1, 6-phosphofructo-2-kinase/fructose-2,6-bisphosphatase 3 (Homo sapiens, UniProt Q16875); settings: 150 uM
Description: Inhibition of recombinant PFKFB3 (unknown origin) assessed as reduction in enzyme kinetic rate at 150 uM

[9] = tested on: Lewis lung carcinoma; test: Antitumor activity against mouse LLC cells implanted in C57Bc16 mouse assessed as inhibition of tumor size at 25 mg/kg, ip dosed on days 1,2 and 3 and 35 mg/kg, ip on days Antitumor activity against mouse LLC cells implanted in C57Bc16 mouse assessed as inhibition of tumor size at 25 mg/kg, ip dosed on days 7,8,9,13,14 and 15; format: functional, organism-based
[10] = Solubility in Cremophore:EToH:saline solution in normal conditions using Amber vials after 8 hrs by HPLC method (reference value: 1 mg/ml at 0 hrs); format: physicochemical
[11] = Solubility in Cremophore:EToH:saline solution in normal conditions using Amber vials after 2 hrs by HPLC method (reference value: 1 mg/ml at 0 hrs); format: physicochemical
[12] = Solubility in Cremophore:EToH:saline solution in normal conditions using Amber vials after 4 hrs by HPLC method (reference value: 1 mg/ml at 0 hrs); format: physicochemical
[13] = tested on: Jurkat; test: Inhibition of cell proliferation of human Jurkat cells incubated for 72 hrs by Alamar blue assay; format: functional, cell-based
[14] = tested on: Jurkat; test: […] cell cycle arrest in human Jurkat cells expressing inducible FLAG-tagged PFKFB assessed as accumulation at G2/M phase by propidium iodide staining based flow cytometry; format: functional
[15] = tested on: Jurkat; test: Reduction in NADH level in human Jurkat cells expressing inducible FLAG-tagged PFKFB at 10 uM after 16 hrs; format: functional, cell-based
[16] = tested on: Jurkat; test: Inhibition of cell proliferation of human Jurkat cells expressing inducible FLAG-tagged PFKFB at 10 uM incubated for 36 hrs by trypan blue dye exclusion assay; format: functional, cell-based
[17] = target: T1, 6-phosphofructo-2-kinase/fructose-2,6-bisphosphatase 3; test: Mixed type inhibition of human PFKFB3 expressed in Escherichia coli BL21 (DE3) assessed as reduction in NADH consumption using fructose-6-phosphate incubated for 15 mins by spectrophotometry based pyruvate kinase and LDH enzyme coupled kinetic assay
[18] = tested on: NHBE; test: Growth inhibition of human NHBE cells immortalized with human telomerase and large-T antigen and transformed with mutated Ras protein at 1 uM incubated for 48 to 72 hrs by trypan blue dye exclusion assay; format: functional, cell-based
[19] = tested on: Jurkat; test: Reduction in NAD+ level in human Jurkat cells expressing inducible FLAG-tagged PFKFB at 10 uM after 24 hrs; format: functional, cell-based
[20] = tested on: MDA-MB-231; test: Antitumor activity against human MDA-MB-231 cells xenografted in Balb/c mouse assessed as tumor growth inhibition at 0.07 mg/g, ip dosed as cyclical regimen of 3 daily injections followed by 3 days of without treatment; format: functional
[21] = tested on: Mus musculus; test: Reduction in [18F]-2-DG uptake in cardiac tissue of C57B1/6 mouse transplanted with mouse LLC cells at 0.07 mg/g, ip after 30 mins post dose by micro-PET method; format: functional, organism-based
[22] = tested on: Jurkat; test: Reduction in Fru-2,6-BP production in human Jurkat cells expressing inducible FLAG-tagged PFKFB at 10 uM measured within 4 hrs; format: functional, cell-based
[23] = Antitumor activity against human HL60 cells xenografted in Balb/c mouse assessed as tumor growth inhibition at 0.07 mg/g, ip dosed as 2 sequential daily injections followed by 7 consecutive days of without treatment; format: functional, HL-60
[24] = tested on: Jurkat; test: Suppression of glycolytic flux into lactate in human Jurkat cells expressing inducible FLAG-tagged PFKFB at 10 uM after 36 hrs by NMR spectroscopy; format: functional, cell-based
[25] = Potency index, ratio of IC50 for 3BrPA to IC50 for test compound for growth inhibition of human NHBE cells immortalized with human telomerase and large-T antigen and transformed with mutated Ras protein at 1 uM incubated for 48 to 72 hrs by trypan blue dye exclusion assay; format: functional
[26] = tested on: NHBE; test: Growth inhibition of human NHBE cells immortalized with human telomerase and large-T antigen and transformed with mutated Ras protein at 10 uM incubated for 48 to 72 hrs by trypan blue dye exclusion assay; format: functional, cell-based
[27] = tested on: Jurkat; test: Potency index, ratio of IC50 for growth inhibition of PFKFB3+/+ht/LT/Ras human Jurkat cells to IC50 for growth inhibition of PFKFB3+/-ht/LT/Ras human Jurkat cells; format: functional
[28] = tested on: Jurkat; test: Inhibition of cell proliferation of human Jurkat cells expressing inducible FLAG-tagged PFKFB incubated for 48 hrs by trypan blue dye exclusion assay; format: functional, cell-based
[29] = tested on: Mus musculus; test: Reduction in F2,6BP production excised tumor of C57B1/6 mouse transplanted with mouse LLC cells at 0.07 mg/g, ip after 4 hrs post dose; format: functional, organism-based
[30] = tested on: Mus musculus; test: Reduction in [18F]-2-DG uptake in tumor of C57B1/6 mouse transplanted with mouse LLC cells at 0.07 mg/g, ip after 30 mins post dose by micro-PET method; format: functional, organism-based
[31] = Growth inhibition of human NHBE cells at 33 uM incubated for 48 to 72 hrs by trypan blue dye exclusion assay; format: cell-based
[32] = tested on: Jurkat; test: Reduction in ATP level in human Jurkat cells expressing inducible FLAG-tagged PFKFB at 10 uM after 24 hrs; format: functional, cell-based
[33] = tested on: Jurkat; test: Reduction in 2-deoxy-glucose uptake in human Jurkat cells expressing inducible FLAG-tagged PFKFB at 10 uM measured within 4 hrs using [14C]-2-deoxy-glucose by scintillation counting method; format: functional, cell-based
[34] = Potency index, ratio of IC50 for 2-DG to IC50 for test compound for growth inhibition of human NHBE cells immortalized with human telomerase and large-T antigen and transformed with mutated Ras protein at 1 uM incubated for 48 to 72 hrs by trypan blue dye exclusion assay; format: functional
[35] = tested on: Jurkat; test: Suppression of glycolytic flux into alanine in human Jurkat cells expressing inducible FLAG-tagged PFKFB at 10 uM after 36 hrs by NMR spectroscopy; format: functional, cell-based
[36] = tested on: HL-60; test: Antitumor activity against human HL60 cells xenografted in Balb/c mouse assessed as tumor growth inhibition at 0.07 mg/g, ip dosed as 2 sequential daily injections followed by 7 consecutive days of without treatment and subsequent second dosing and measured on day9; format: functional, organism-based
[37] = tested on: Jurkat; test: Reduction in lactate secretion in human Jurkat cells expressing inducible FLAG-tagged PFKFB at 10 uM after 8 hrs by lactate oxidase based colorimetric assay; format: functional, cell-based

T1 sequence (Q16875 whole entry): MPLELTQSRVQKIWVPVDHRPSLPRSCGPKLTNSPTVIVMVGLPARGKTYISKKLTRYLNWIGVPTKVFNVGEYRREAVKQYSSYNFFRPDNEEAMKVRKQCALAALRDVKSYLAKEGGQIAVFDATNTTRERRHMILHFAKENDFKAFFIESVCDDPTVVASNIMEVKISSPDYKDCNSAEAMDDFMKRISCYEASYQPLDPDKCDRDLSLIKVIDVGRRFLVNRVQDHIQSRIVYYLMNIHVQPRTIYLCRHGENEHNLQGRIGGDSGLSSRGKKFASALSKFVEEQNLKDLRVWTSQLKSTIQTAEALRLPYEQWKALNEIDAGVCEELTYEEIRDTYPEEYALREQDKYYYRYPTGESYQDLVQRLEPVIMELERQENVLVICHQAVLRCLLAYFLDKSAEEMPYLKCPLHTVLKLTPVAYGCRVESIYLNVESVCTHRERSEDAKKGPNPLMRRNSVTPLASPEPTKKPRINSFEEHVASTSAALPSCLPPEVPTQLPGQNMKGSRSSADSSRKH

O=C(/C=C/c1ccccc1Cl)c1ccccn1
growth inhibition (GI) [1]: Active
growth inhibition (GI) [2]: Active
growth inhibition (GI) [3]: Active
growth inhibition (GI) [4]: Active
growth inhibition (GI) [5]: Active

O=C(/C=C/c1cccc2ccccc12)c1ccncc1
growth inhibition (GI) [1]: Active
growth inhibition (GI) [2]: Active
growth inhibition (GI) [3]: Active
growth inhibition (GI) [4]: Active
growth inhibition (GI) [5]: Active

O=C(/C=C/c1ccc(Cl)cc1)c1cccnc1
growth inhibition (GI) [1]: Active
growth inhibition (GI) [2]: Dose-dependent effect
growth inhibition (GI) [3]: Dose-dependent effect
growth inhibition (GI) [4]: Active
growth inhibition (GI) [5]: Active

Cc1cccc2ccc(/C=C/C(=O)c3ccncc3)nc12
inhibition [6]: Active
inhibition [7]: Active

CC(=O)Nc1ccc(/C=C/C(=O)c2ccncc2)cc1
growth inhibition (GI) [1]: Active
growth inhibition (GI) [2]: Active
growth inhibition (GI) [3]: Active
growth inhibition (GI) [4]: Active
growth inhibition (GI) [5]: Active

O=C(/C=C/c1ccc2ccccc2n1)c1cccnc1
growth inhibition (GI) [1]: Active
growth inhibition (GI) [2]: Active
growth inhibition (GI) [3]: Active
inhibition [8]: > 80%
growth inhibition (GI) [4]: Active
growth inhibition (GI) [5]: Active

Cl.O=C(/C=C/c1ccc2cccc(O)c2n1)c1ccncc1
inhibition [9]: Active
solubility at 8 h [10]: 1 mg/mL
solubility at 2 h [11]: 1 mg/mL
solubility at 4 h [12]: 1 mg/mL

O=C(/C=C/c1ccccc1Cl)c1cccnc1
growth inhibition (GI) [1]: Active
growth inhibition (GI) [2]: Active
growth inhibition (GI) [3]: Active
growth inhibition (GI) [4]: Active
growth inhibition (GI) [5]: Active

O=C(/C=C/c1cnc2ccccc2c1)c1ccncc1
IC50 [13]: > 4 µM

O=C(/C=C/c1cccnc1)c1ccncc1
Activity [14]: Active
Activity [15]: Active
inhibition [16]: Active
Ki [17]: 25.1 µM
growth inhibition (GI) [18]: Active
Activity [19]: Active
Imax [20]: 64%
Activity [21]: Active
Activity [22]: Active
TGI [23]: >75%
Activity [24]: Active
Ratio IC50 [25]: 10
growth inhibition (GI) [26]: Active
Ratio IC50 [27]: 2
inhibition [28]: Dose-dependent effect
Activity [29]: Active
Activity [30]: Active
Activity [31]: Non-toxic
Activity [32]: Active
Activity [33]: Active
Ratio IC50 [34]: 10
Activity [35]: inactive
TGI [36]: Active
Activity [37]: Active
